Experimental data taken from patent US11866450B2, “Modulators of Cystic Fibrosis Transmembrane Conductance regulator, pharmaceutical compositions, methods of treatment, and process for making the modulators” (priority 2018, dated 2024).
Like-named read-outs stand apart in the source and are kept apart here.

Columns and labels:
[1] = snar bond
[2] = snar bond, DMSO
[3] = biological target: CFTR-mediated chloride transport (Homo sapiens, UniProt P13569); type: cell-based; details: enteroid cells incubated with test compound 18-24 hours, acute 10 μM forskolin and 300 nM Compound III; for Max. Activity: % of chloride transport with 3 μM Compound A, 3 μM Compound II and 300 nM acute Compound III triple combination control
Chain of CFTR-mediated chloride transport (P13569 whole entry, looked up): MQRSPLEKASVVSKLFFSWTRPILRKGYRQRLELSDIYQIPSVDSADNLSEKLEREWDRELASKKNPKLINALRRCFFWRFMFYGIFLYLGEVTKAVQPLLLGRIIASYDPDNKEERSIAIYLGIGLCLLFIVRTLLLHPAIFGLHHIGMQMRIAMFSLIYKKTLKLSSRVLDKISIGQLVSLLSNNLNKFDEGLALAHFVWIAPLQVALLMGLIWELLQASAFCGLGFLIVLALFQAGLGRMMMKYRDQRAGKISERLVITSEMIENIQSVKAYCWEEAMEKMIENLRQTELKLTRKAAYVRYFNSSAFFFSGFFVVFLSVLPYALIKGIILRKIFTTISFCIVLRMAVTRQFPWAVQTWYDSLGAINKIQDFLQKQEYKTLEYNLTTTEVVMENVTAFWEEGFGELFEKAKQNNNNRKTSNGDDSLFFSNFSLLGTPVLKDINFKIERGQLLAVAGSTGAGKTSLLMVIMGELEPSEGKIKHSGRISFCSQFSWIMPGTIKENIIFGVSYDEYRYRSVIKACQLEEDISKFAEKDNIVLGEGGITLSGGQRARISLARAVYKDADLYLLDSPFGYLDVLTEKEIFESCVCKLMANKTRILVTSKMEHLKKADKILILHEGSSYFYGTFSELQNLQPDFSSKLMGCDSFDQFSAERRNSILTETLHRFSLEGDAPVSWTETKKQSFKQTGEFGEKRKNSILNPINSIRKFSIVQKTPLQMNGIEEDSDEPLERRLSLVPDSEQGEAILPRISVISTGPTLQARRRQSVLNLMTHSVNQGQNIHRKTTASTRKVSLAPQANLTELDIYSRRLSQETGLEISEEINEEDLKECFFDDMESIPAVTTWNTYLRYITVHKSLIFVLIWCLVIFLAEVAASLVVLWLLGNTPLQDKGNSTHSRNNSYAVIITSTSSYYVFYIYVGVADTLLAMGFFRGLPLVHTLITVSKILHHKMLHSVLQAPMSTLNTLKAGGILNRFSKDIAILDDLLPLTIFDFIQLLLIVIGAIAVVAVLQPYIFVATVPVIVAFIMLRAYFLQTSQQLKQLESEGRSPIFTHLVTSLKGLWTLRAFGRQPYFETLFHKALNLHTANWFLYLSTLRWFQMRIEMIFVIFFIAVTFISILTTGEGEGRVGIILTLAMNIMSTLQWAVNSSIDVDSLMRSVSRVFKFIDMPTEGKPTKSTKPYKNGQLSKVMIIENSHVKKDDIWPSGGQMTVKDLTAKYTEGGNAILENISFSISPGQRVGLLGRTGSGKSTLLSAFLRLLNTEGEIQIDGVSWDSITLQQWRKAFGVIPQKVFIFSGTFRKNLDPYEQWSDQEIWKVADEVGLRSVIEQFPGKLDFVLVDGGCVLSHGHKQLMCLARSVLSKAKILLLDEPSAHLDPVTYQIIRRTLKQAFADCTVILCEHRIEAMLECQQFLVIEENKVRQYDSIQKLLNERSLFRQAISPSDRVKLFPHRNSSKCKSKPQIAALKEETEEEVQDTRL
Summary of the method: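 Membrane-potential fluorescence AUC over 15 min quantified CFTR chloride transport after acute forskolin (10 μM), IBMX (100 μM) and Compound III (300 nM) in chloride-free buffer. Human enteroid cells were pretreated with compound for 18–24 h; % Activity is relative to 3 μM Compound A + 3 μM Compound II + 300 nM Compound III.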

Q: For CC1(C)CC2CCCn3ccc(n3)S(=O)(=O)NC(=O)c3ccc(-n4ccc(OCCC5C(C)(C)C5(C)C)n4)nc3N1C2 (centres unmarked), which ring closure, isolated yield ([1]; from CC(C)(C)OC(=O)N1CC(CCCn2ccc(S(=O)(=O)NC(=O)c3ccc(-n4ccc(OCCC5C(C)(C)C5(C)C)n4)nc3Cl)n2)CC1(C)C, 14-membered ring, K2CO3/3A MS, NMP, 49.2 mM, 160.0 °C, 2 steps) is on record?
A: 20%

Q: Which ring closure, isolated yield ([1]; from 2-chloro-N-[[6-[3-(5,5-dimethylpyrrolidin-2-yl)propylamino]-2-pyridyl]sulfonyl]-6-[3-(dispiro[2.0.2.1]heptan-7-ylmethoxy)pyrazol-1-yl]pyridine-3-carboxamide (dihydrochloride salt), 14-membered ring, K2CO3/CsF, NMP, 123.1 mM) does the source give for CC1(C)CCC2CCCNc3cccc(n3)S(=O)(=O)NC(=O)c3ccc(-n4ccc(OCC5C6(CC6)C56CC6)n4)nc3N21 (centres unmarked) here?
A: 41%

Q: With CC1(C)CC2CCCCCNc3cccc(n3)S(=O)(=O)NC(=O)c3ccc(-n4ccc(OCCC5(C(F)(F)F)CC5)n4)nc3N1C2 (single isomer, unassigned; enantiomer 1) as the molecule, how does the ring closure, isolated yield ([1]; from CC1(C)CC(CCCCCNc2cccc(S(=O)(=O)NC(=O)c3ccc(-n4ccc(OCCC5(C(F)(F)F)CC5)n4)nc3Cl)n2)CN1, 17-membered ring, K2CO3/CsF/3A MS, DMSO, 35.8 mM, 165.0 °C, 16.0 h) read?
A: 47%

Q: Which ring closure, isolated yield ([1]; from 2-chloro-N-[[6-[[3-(5,5-dimethylpyrrolidin-3-yl)-2-fluoro-propyl]amino]-2-pyridyl]sulfonyl]-6-[3-(2-dispiro[2.0.2.1]heptan-7-ylethoxy)pyrazol-1-yl]pyridine-3-carboxamide (dihydrochloride salt), 15-membered ring, K2CO3, NMP, 32.3 mM, 150.0 °C) does the source give for CC1(C)CC2CC(F)CNc3cccc(n3)S(=O)(=O)NC(=O)c3ccc(-n4ccc(OCCC5C6(CC6)C56CC6)n4)nc3N1C2 (centres unmarked) here?
A: 76%

Q: Which ring closure, isolated yield ([1]; from CC1(C)C[C@H](CCCNc2ccc(OCc3ccccc3)c(S(=O)(=O)NC(=O)c3ccc(-n4ccc(OCCC5C6(CC6)C56CC6)n4)nc3Cl)n2)CN1, 15-membered ring, K2CO3, NMP, 57.2 mM, 150.0 °C, 20.0 h) does the source give for CC1(C)C[C@@H]2CCCNc3ccc(OCc4ccccc4)c(n3)S(=O)(=O)NC(=O)c3ccc(-n4ccc(OCCC5C6(CC6)C56CC6)n4)nc3N1C2 here?
A: 37%

Q: For CN1CCCC2CN(c3nc(-n4ccc(OCCC(C5CC5)C5CC5)n4)ccc3C(=O)NS(=O)(=O)c3cccc1n3)C(C)(C)C2 (centres unmarked) [Compound 189, 8-[3-(3,3-Dicyclopropylpropoxy)-1H-pyrazol-1-yl]-12,12,18-trimethyl-2λ^6-thia-3,9,11,18,23-pentaazatetracyclo[17.3.1.111,14.05,10]tetracosa-1(22),5,7,9,19(23),20-hexaene-2,2,4-trione], which ring closure, yield after HPLC ([2]; from CN(CCCC1CNC(C)(C)C1)c1cccc(S(=O)(=O)NC(=O)c2ccc(-n3ccc(OCCC(C4CC4)C4CC4)n3)nc2Cl)n1, 15-membered ring, K2CO3/CsF/4A MS, 24.8 mM, 130.0 °C, 2 steps) is on record?
A: 60%

Q: And the EC50 [3]?
A: < 1 µM

Q: And the “Max. Activity” value [3]?
A: +++ (+++ is >60%)

Q: What does the source list for Cc1nn2cc1S(=O)(=O)NC(=O)c1ccc(-n3ccc(OCCC4(C(F)(F)F)CC4)n3)nc1N1C[C@@H](CCC2)CC1(C)C [Compound 112, (18S)-12,20,20-trimethyl-4-(3-{2-[1-(trifluoromethyl)cyclopropyl]ethoxy}-1H-pyrazol-1-yl)-10λ^6-thia-1,3,9,13,14-pentaazatetracyclo[16.2.1.111,14.02,7]docosa-2,4,6,11(22),12-pentaene-8,10,10-trione]?
A: ring closure, yield after HPLC ([2]; from Cc1nn(CCC[C@@H]2CNC(C)(C)C2)cc1S(=O)(=O)NC(=O)c1ccc(-n2ccc(OCCC3(C(F)(F)F)CC3)n2)nc1Cl, 14-membered ring, K2CO3/CsF, 37.8 mM, 160.0 °C): 26%; EC50 [3]: < 1 µM; Max. Activity [3]: ++ (++ is 30-60%)

Q: What does the source list for CC(C)C(COc1ccn(-c2ccc3c(n2)N2CC(CCCNc4cccc(n4)S(=O)(=O)NC3=O)CC2(C)C)n1)C(C)C (centres unmarked) [Compound 220, 12,12-Dimethyl-8-{3-[3-methyl-2-(propan-2-yl)butoxy]-1H-pyrazol-1-yl}-2λ^6-thia-3,9,11,18,23-pentaazatetracyclo[17.3.1.111,14.05,10]tetracosa-1(23),5(10),6,8,19,21-hexaene-2,2,4-trione]?
A: ring closure, yield after HPLC ([2]; from CC(C)C(COc1ccn(-c2ccc(C(=O)NS(=O)(=O)c3cccc(NCCCC4CCC(C)(C)N4C(=O)OC(C)(C)C)n3)c(Cl)n2)n1)C(C)C, 15-membered ring, K2CO3/CsF/3A MS, 83.8 mM, 140.0 °C, 2 steps): 39%; EC50 [3]: < 1 µM; Max. Activity [3]: +++ (+++ is >60%)

Q: For CC1(C)CC2CCCOc3ccc(cn3)S(=O)(=O)NC(=O)c3ccc(-n4ccc(OCCC5(C(F)(F)F)CC5)n4)nc3N1C2 (centres unmarked) [Compound 90, 12,12-dimethyl-8-(3-{2-[1-(trifluoromethyl)cyclopropyl]ethoxy}-1H-pyrazol-1-yl)-18-oxa-2λ^6-thia-3,9,11,20-tetraazatetracyclo[17.2.2.111,14.05,10]tetracosa-1(21),5(10),6,8,19,22-hexaene-2,2,4-trione], which ring closure, yield after HPLC ([2]; from CC(C)(C)OC(=O)N1CC(CCCOc2ccc(S(=O)(=O)NC(=O)c3ccc(-n4ccc(OCCC5(C(F)(F)F)CC5)n4)nc3Cl)cn2)CC1(C)C, 16-membered ring, HCl (Boc off), K2CO3/CsF/3A MS, 61.4 mM, 155.0 °C, 2 steps) is on record?
A: 7%

Q: What about the EC50 [3] of the same molecule?
A: < 1 µM

Q: And the “Max. Activity” value [3]?
A: ++ (++ is 30-60%)

Q: What does the source list for [2H]C([2H])(COc1ccn(-c2ccc3c(n2)N2C[C@@H](CCCNc4cccc(n4)S(=O)(=O)NC3=O)CC2(C)C)n1)CC1(C(F)(F)F)CC1 [Compound 270, (14S)-12,12-Dimethyl-8-(3-{3-[1-(trifluoromethyl)cyclopropyl]-2,2-dideuterio-propoxy}-1H-pyrazol-1-yl)-2λ^6-thia-3,9,11,18,23-pentaazatetracyclo[17.3.1.111,14.05,10]tetracosa-1(23),5(10),6,8,19,21-hexaene-2,2,4-trione]?
A: ring closure, yield after HPLC ([2]; from [2H]C([2H])(COc1ccn(-c2ccc(C(=O)NS(=O)(=O)c3cccc(NCCC[C@@H]4CN(C(=O)OC(C)(C)C)C(C)(C)C4)n3)c(Cl)n2)n1)CC1(C(F)(F)F)CC1, 15-membered ring, TFA/DCM, then K2CO3/CsF/3A MS, 27.0 mM, 150.0 °C, 2 steps): 44%; EC50 [3]: < 1 µM; Max. Activity [3]: +++ (+++ is >60%)

Q: For CC1(C)C[C@@H]2CCCOc3cccc(c3)S(=O)(=O)NC(=O)c3ccc(-n4ccc(OCCC5(C(F)(F)F)CC5)n4)nc3N1C2 [Compound 77, (14S)-12,12-Dimethyl-8-(3-{2-[1-(trifluoromethyl)cyclopropyl]ethoxy}-1H-pyrazol-1-yl)-18-oxa-2λ^6-thia-3,9,11-triazatetracyclo[17.3.1.111,14.05,10]tetracosa-1(23),5(10),6,8,19,21-hexaene-2,2,4-trione], which ring closure, yield after HPLC ([2]; from CC1(C)C[C@H](CCCOc2cccc(S(=O)(=O)NC(=O)c3ccc(-n4ccc(OCCC5(C(F)(F)F)CC5)n4)nc3Cl)c2)CN1, 15-membered ring, K2CO3/CsF/3A MS, 62.9 mM, 150.0 °C, 20.0 h, 2 steps) is on record?
A: 20%

Q: And the EC50 [3]?
A: < 1 µM

Q: And the “Max. Activity” value [3]?
A: +++ (+++ is >60%)

Q: For Cc1nn2cc1S(=O)(=O)NC(=O)c1ccc(-n3ccc(OCCC4(C(F)(F)F)CC4)n3)nc1N1CC(CCC2)CC1(C)C (centres unmarked) [Compound 19, 12,20,20-trimethyl-4-(3-{2-[1-(trifluoromethyl)cyclopropyl]ethoxy}-1H-pyrazol-1-yl)-10λ^6-thia-1,3,9,13,14-pentaazatetracyclo[16.2.1.111,14.02,7]docosa-2,4,6,11(22),12-pentaene-8,10,10-trione], which ring closure, yield after HPLC ([2]; from Cc1nn(CCCC2CNC(C)(C)C2)cc1S(=O)(=O)NC(=O)c1ccc(-n2ccc(OCCC3(C(F)(F)F)CC3)n2)nc1Cl, 14-membered ring, K2CO3/CsF/3A MS, 31.9 mM, 150.0 °C) is on record?
A: 9%

Q: And the EC50 [3]?
A: 1 to 3 µM

Q: And the “Max. Activity” value [3]?
A: ++ (++ is 30-60%)

Q: With CC1(C)CC2CCCCNc3ccc(cn3)S(=O)(=O)NC(=O)c3ccc(-n4ccc(OCCC(C5CC5)C5CC5)n4)nc3N1C2 (centres unmarked) [Compound 130, 8-[3-(3,3-Dicyclopropylpropoxy)-1H-pyrazol-1-yl]-12,12-dimethyl-2λ^6-thia-3,9,11,19,21-pentaazatetracyclo[18.2.2.111,14.05,10]pentacosa-1(22),5,7,9,20,23-hexaene-2,2,4-trione] as the molecule, how does the ring closure, yield after HPLC ([2]; from CC(C)(C)OC(=O)N1CC(CCCCNc2ccc(S(=O)(=O)NC(=O)c3ccc(-n4ccc(OCCC(C5CC5)C5CC5)n4)nc3Cl)cn2)CC1(C)C, 17-membered ring, K2CO3/CsF/3A MS, 107.7 mM, 160.0 °C, 2 steps) read?
A: 15%

Q: What about the EC50 [3] of the same molecule?
A: < 1 µM

Q: And the “Max. Activity” value [3]?
A: +++ (+++ is >60%)

Q: What does the source list for CC1(C)CC2CCCCNc3cccc(n3)S(=O)(=O)NC(=O)c3ccc(-n4cc(OCCC5(C(F)(F)F)CC5)cn4)nc3N1C2 (racemic) [Compound 70, 12,12-Dimethyl-8-(4-{2-[1-(trifluoromethyl)cyclopropyl]ethoxy}-1H-pyrazol-1-yl)-2λ^6-thia-3,9,11,19,24-pentaazatetracyclo[18.3.1.111,14.05,10]pentacosa-1(23),5,7,9,20(24),21-hexaene-2,2,4-trione]?
A: ring closure, yield after HPLC ([2]; from CC1(C)CC(CCCCNc2cccc(S(=O)(=O)NC(=O)c3ccc(-n4cc(OCCC5(C(F)(F)F)CC5)cn4)nc3Cl)n2)CN1, 16-membered ring, K2CO3/CsF/3A MS, 164.4 mM, 150.0 °C): 24%; EC50 [3]: < 1 µM; Max. Activity [3]: ++ (++ is 30-60%)

Q: Which ring closure, yield after HPLC ([2]; from CC(C)C(COc1ccn(-c2ccc(C(=O)NS(=O)(=O)c3cccc(NCCOC4CN(C(=O)OC(C)(C)C)C(C)(C)C4)n3)c(Cl)n2)n1)C(C)C, 15-membered ring, K2CO3/CsF/3A MS, 78.4 mM, 140.0 °C, 2 steps) does the source give for CC(C)C(COc1ccn(-c2ccc3c(n2)N2CC(CC2(C)C)OCCNc2cccc(n2)S(=O)(=O)NC3=O)n1)C(C)C (centres unmarked) [Compound 238, 12,12-dimethyl-8-{3-[3-methyl-2-(propan-2-yl)butoxy]-1H-pyrazol-1-yl}-15-oxa-2λ^6-thia-3,9,11,18,23-pentaazatetracyclo[17.3.1.111,14.05,10]tetracosa-1(23),5(10),6,8,19,21-hexaene-2,2,4-trione] here?
A: 44%

Q: What about the EC50 [3] of the same molecule?
A: < 1 µM

Q: What about the “Max. Activity” value [3] of the same molecule?
A: +++ (+++ is >60%)
